Reference: patent US10391070B2, “Compositions and methods for treating neurological diseases or injury” (MUSC FOUNDATION FOR RESEARCH DEVELOPMENT, priority 2012, dated 2019)

Assays:
HT22 cells [1] = test: t-BuOOH toxicity protection (MTS cell viability); assay type: cell-based, mouse; settings: HT22, 50 μM t-BuOOH
Description: Cell viability was assessed by the ability of the viable cells to metabolize 3-(4,5-dimethylthiazol-2-yl)-5-(3-carboxymethoxyphenyl)-2(4-sulfophenyl)2-H-tetrazolium, inner salt (MTS), as described previously (Cory et al., 1991). The metabolism of tetrazolium salts is often used to measure cellular proliferation, but in the system used here, it has been previously shown to correlate well with cell viability as determined by trypan blue exclusion and colony-forming assays (Davis and Maher, 1994). Briefly, HT-22 cells were seeded onto 96-well plates at 5.0×10^3 cells per well in 75 μL of medium and maintained at 37° C. in 5% CO2 overnight prior to the initiation of experimental treatments. For glutamate toxicity testing, cells were subsequently treated with 25 μL of medium containing glutamate (monosodium glutamate, Sigma, 1 M stock concentration in media, to achieve a final concentration of 10 mM) plus inhibitors (stock in DMSO) and maintained at 37° C. in 5% CO2. For t-BuOOH toxicity testing, cells were subsequently treated with 25 μL of medium containing t-BuOOH (Sigma, 10 mM stock concentration, to achieve a final concentration of 50 μM) plus inhibitors (stock in DMSO) and maintained at 37° C. in 5% CO2 for 3 hours, after which the media was removed, cells washed gently with HBSS, the media replaced with standard culture media, and the cells returned to incubation at 37° C. in 5% CO2. For both glutamate and t-BuOOH treatments, 10 μl of MTS solution was added to each well 24 hrs after initial treatment, and the cells were maintained in growth medium for 2 h at 37° C. Absorbance at 490 nm was subsequently measured by a SpectraMax 190 plate reader (Molecular Devices). The growth medium without cells in the presence of MTS solution was used as solution background and untreated cells were considered the controls. Cell viability was calculated as a percentage compared with untreated controls. EC50 determinations were based on 12-point titrations using GraphPad Prism, and each experiment was repeated at least four times. Morphology of HT22 cells following treatments was determined by phase-contrast microscopy. Digital images of cells grown on cell culture plates were captured at 10× magnification.
In light of the findings that the protection against glutamate induced cell death provided by VK2, 2q, and 2j, are at least partially mediated by the attenuation of the increased production of endogenous ROS, the inventors also examined the effects of these compounds on tert-butylhydroperoxide (t-BuOOH) induced cell death. t-BuOOH is a short chain analog of the lipid hydroperoxides formed from peroxidation reactions during oxidative stress that is cytotoxic to cells (Lemasters and Nieminen, 1997). […] It is well documented that cells undergo rapid and extensive fragmentation in the early stages of cell death (Bossy-Wetzel et al., 2003; Frank et al., 2001; Breckenridge et al., 2008; Jagasia et al., 2005; Lee et al., 2004). Recent studies have shown that mitochondrial fragmentation is regulated by the translocation of dynamin-related protein 1 (Drp1) from the cytosol to the mitochondria, where it assembles to form spirals at division sites (Smirnova et al., 2001). Although the exact molecular mechanism is still not well studied, the activity of Drp1 is regulated by the phosphorylation and dephosphorylation of specific serine residues by protein kinases and phosphatases such as calcineurin and the PGAM5 (Wang et al., 2012; Chang et al., 2007). […]

HT22 cells [2] = test: Glutathione determination in glutamate-treated cells; assay type: cell-based, mouse; settings: HT22, 10 mM glutamate 8 hrs, 25 μM
Description: The content of total glutathione (reduced and oxidized) in the supernatant of cell homogenate was measured using the glutathione assay kit (Cayman Chemical) in microtiter plate assay, which utilizes an enzymatic recycling method, using glutathione reductase, for the quantification of glutathione. The sulfhydryl group of glutathione reacted with 5,5′-dithiobis-2-nitrobenzoic acid (DTNB) and produced a yellow-colored 5-thio-2-nitrobenzoic acid (TNB), which was measured at 405 nm.

[3] = Antioxidant activity assay (DPPH free radical scavenging); settings: 20 μM, 100 μM DPPH in methanol
Description: Antioxidant activity of various reagents was assayed as previously described by monitoring the disappearance of the optical absorbance of the stable-free radical DPPH on reaction with test compounds (Blois, 1958). The rate of the reaction represents the antioxidant potency of test agents. The known free radical scavenger Trolox and ascorbic acid were used as positive controls. Briefly, 10 μL of test reagents at final concentrations of 20 μM were added to 200 μL of 100 μM DPPH in methanol. Optical absorbance of DPPH at 517 nm was immediately monitored for 10 min.

zebrafish larvae = test: Zebrafish larval toxicity (NOEC, lethal dose); assay type: in vivo; settings: 7 dpf zebrafish larvae
Description: Using a 96-well plate, one zebrafish larva (7 dpf) was placed in each well in 100 μL of tank water (TW). 100 μL of each compound (0.5-15 μM) was then added to each well for 12 animals (one row) to give a final volume of 200 […]. A control row was tested for DMSO toxicity effects. […] Each drug was assessed for the no observed effect concentration (NOEC), the highest non-lethal dose resulting in no apparent toxic effects.
Zebrafish (AB strain) were obtained from the Zebrafish International Resource Center (supported by P40 RR012546 from NIH-NCRR). Zebrafish were maintained and crossed according to standard methods (Westerfield, 2000). Fertilized eggs were collected and placed in E3 embryo medium and positioned in an incubator set at 28.5° C. with a 14/10 h light/dark cycle (Kimmel et al., 1995). To determine the lethal dose of each compound, 96-well plates containing one zebrafish (7 days post-fertilization, dpf) per well in 100 μL of tank water were used. 100 μL of each compound (0.5 to 15 μM) was added to each well for 12 animals (one row) for a final volume of 200 μL. One row of larvae was used as DMSO only controls. […] All zebrafish studies were approved by the Medical University of South Carolina Institutional Animal Care and Use Committee (AR #2850) and performed in accordance with the guidelines.
Using a 96-well plate, one zebrafish larva (7 dpf) was placed in each well in 100 μL of tank water. 100 μL of each compound was then added to each well for 12 animals (one row) for a final volume of 200 μL. One row of zebrafish larvae was used as DMSO only controls. […] Toxicity was also measured in the mouse model by the NIH Anticonvulsant Screening Program at the National Institute of Neurological Disorders and Stroke (Stables and Kupferberg, 1997), according to the established NIH experimental procedures. Compounds were delivered into mice by intraperitoneal (i.p.) injection at a dose of 100 mg/kg in sterile 5% DMSO, 95% Neobee (Josey et al., 2013). Acute toxicity was assessed by monitoring the animals for impaired neuromuscular function by placing treated mice on a rod rotating at 6 rpm. […]

PTZ-induced seizures = test: PTZ-induced seizure (swim activity) model in zebrafish larvae; assay type: in vivo, zebrafish (Danio rerio)
Description: The DanioVision locomotion tracking instrument with Ethovision XT software (Noldus) was used to measure the severity of the seizures by quantifying the locomotor activity of each fish.
In a 48-well plate, one 6-7 dpf larva was added per well. Compounds were given at a sub-lethal dose and treated for 1 h. Three control rows were included—tank water (TW) only, PTZ only and PTZ+VPA (2-4 mM final concentration of VPA). […] After 5 min, the plate was transferred to the Daniovision apparatus and the chamber light was turned on. After 2 min, Ethovision was used to determine the distance traveled (a marker of seizure of activity) by each fish for 15 min (25 frames per second). Velocity, duration of movement, and frequency of movement were also determined from the same recording. After measurement, fish were monitored visually for survival. The distance moved over the recording period with Ethovision XT software (Noldus) was averaged over 8 wells per treatment unless the fish was not detected.
In a 48-well plate, one 7 dpf zebrafish was added per well. Larvae were dosed with each compound at a sub-lethal dose 1 h prior to PTZ treatment. Three control rows were included with each experiment—tank water only control, PTZ only and PTZ+VPA (4 mM final concentration of VPA). […] After 5 min, the plate was transferred to the Daniovision instrument (Noldus Information Technology) and the chamber light was turned on. After 2 min, MediaRecorder (Noldus) was used to record video for 15 min. A small number of videos were acquired 25 frames per second, but the majority of the data was acquired at the frame rate of 60 frames per second. After recording, fish were monitored visually for survival. Ethovision XT software (Noldus) was used to track the fish movement from the video images in order to calculate the total distance traveled over 15 min. […] All experimental comparisons were made between animals from the same clutch.

c-fos = c-fos gene expression in PTZ-treated zebrafish larvae; assay type: in vivo, zebrafish (Danio rerio); settings: 7 dpf zebrafish, pre-treatment
Description: Ten 7 dpf larvae were placed in 500 μL tank water in wells of a 48-well cell-culture plate and appropriate concentrations of drugs were added as in the behavior study (Table 9). After a 1 h pre-incubation period, PTZ was added to a final concentration of 15 mM in appropriate wells and larvae were incubated for a further 45 min. Fish were quickly euthanized by incubating the plate in an ice-water bath for 15 min. Fish were removed from each well and all liquid removed before freezing at −80° C. RNA was extracted using Trizol (Invitrogen) followed by the RNeasy Mini kit (Qiagen). Frozen embryos were homogenized in 800 μL Trizol using in-tube pestles and a motorized homogenizer. Following a 5-min incubation at room temperature, 200 μL chloroform was added and the samples were centrifuged at 12,000 g for 10 min. The aqueous phase was transferred to a new tube and 250 μL 100% ethanol was added and the samples mixed. This mixture was then transferred to the Qiagen minicolumn assembly and the protocol followed as described with the kit. Samples were eluted in 30 μL RNase free water and concentration was determined using the Nanodrop instrument (Thermo Fisher). cDNA was prepared using the RETROscript kit (Ambion) with 500 ng total RNA. cDNA was then diluted 1:1 with sterile dH2O and 2.5 μL of this cDNA was used in the QPCR reaction with SsoAdvanced SYBR Green Supermix (BioRad) and c-fos primers designed to span an intron-exon junction (c-fos F: […], SEQ ID NO:9; c-fos R: […], SEQ ID NO:10) ([…] each) in the BioRad CFX96 RealTime instrument. L13a and EF1a gene expression were used for normalization (Rahn et al., 2013). The following cycle conditions were used: 95° C./3 min, 40 cycles of 95° C./15 s, 62° C./30 s, followed by 95° C. 30 s and a dissociation curve. Samples were run in duplicate. The 2^−ΔΔCt method was used to quantify gene expression, whereby all gene Ct values were first normalized to Ct values of the geometric mean of the Ct of L13a and EF1a (Livak and Schmittgen, 2001). Treated samples were then normalized to the tank water control and converted to fold change.

HT-22 neuronal cells = test: Respirometry (OCR, ECAR; Seahorse XF-96); assay type: cell-based, mouse; design: ECAR (glycolysis), difference from control: unit not given here; settings: HT-22 cells, mean±SEM
Description: Oxygen consumption rates (OCR) and extracellular acidification rates (ECAR) of HT-22 neuronal cells were performed on the XF-96 Extracellular Flux Analyzer (Seahorse Bioscience) using standard methods (Beeson et al., 2010). In brief, cells were cultured in 96 well Seahorse plates in DMEM high glucose media (Invitrogen) supplemented with 10% FBS, 10 mM HEPES, and 1% antibiotic-antimycotic (Invitrogen). The media was replaced with DMEM media supplemented with 25 mM glucose, 10 mM sodium pyruvate, 31 mM NaCl, and 2 mM glutamine at pH 7.4. Each of the four drug ports on the Seahorse sensor cartridge were filled with test compound (media only, 5 μM NQN-1, 10 μM VK3 or 12.5 μM MB), 10 μM oligomycin, 1 μM FCCP, and 5 μM rotenone, which were injected into each well at 20, 80, 110, and 135 min, respectively. The pmol/min OCR rate for each well (9-52 wells/group) was measured. Wells were excluded from the analysis if their OCR values surpassed the Tukey Outlier Rule. In order to standardize the OCR rates across wells, the average OCR value at 17 min (last time point prior to injection of the test compounds) for each experimental group was calculated, and set to 100. All OCR values are given as a percentage of this pre-treatment value. […]

HDAC = HDAC isozymes inhibited; cited from earlier work

SMILES	protection from t-BuOOH induced cell death (HT22 cells [1])	depletion of total cellular GSH (HT22 cells [2])	free radical scavenging capacity (DPPH absorbance) [3]	Lethal dose (zebrafish larvae; up to 5 h treatment) [mM]	Highest concentration tested for anti-seizure activity (zebrafish larvae; highest sub-lethal dose) [mM]	concentration required for effective reduction of seizures (PTZ-induced seizures; PTZ-treated zebrafish larvae) [µM]	Seizure suppression (PTZ-induced seizures; PTZ-treated zebrafish larvae, pretreated 1 hr at NOEC)	PTZ-induced swim activity (distance traveled) (PTZ-induced seizures; zebrafish larvae, 1 h pretreatment at sub-lethal concentration (VPA 4 mM, NQN-1 3 μM), 15 mM PTZ)	PTZ-induced increase in c-fos expression (c-fos)	basal cellular respiration, difference in OCR from control (HT-22 neuronal cells; 1 h treatment, OCR as percentage of pre-treatment value)	basal mitochondrial respiration, difference from control (HT-22 neuronal cells; basal minus non-mitochondrial (rotenone))	ATP-linked respiration, difference from control (HT-22 neuronal cells; basal minus oligomycin)	ECAR (glycolysis), difference from control (HT-22 neuronal cells)	HDAC Class of Inhibition (HDAC)
Cc1c(C)c2c(c(C)c1O)CCC(C)(C(=O)O)O2 (centres unmarked) [Trolox]	less effective	did not prevent GSH depletion	rapidly scavenged DPPH											
O=C(NC1=CC(=O)c2ccccc2C1=O)c1ccccc1 [2-benzoylamino-1,4-naphthoquinone]				0.005	0.003	3	Yes	significantly suppressed PTZ-induced swim activity	able to blunt this increase in expression	24.35±1.03	15.26±2.29	16.83±1.83	1.75±1.12	6
